According to the supplement of paper PMC10307832:

How the values were obtained:
Assay in all cases: relative viability (nuclei count vs DMSO), 5 days (fraction); higher = more cells survive
[1] = tested on: LCLC-103H
Procedure, shortened: (§1)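 For relative viability, nuclei counts in treated wells were divided by those in vehicle wells. Lung cancer cell lines had been pin-tool dosed in 1536-well plates the day after seeding and cultured for 5 days, then fixed and stained in one step (final 0.05% Triton X-100, 1% formaldehyde, 1 ug/ml Hoechst) and imaged at 4×. Doses were one drug alone or a fixed anchor-drug dose plus five library-drug doses (not always all listed) in √10 steps, and values are duplicate-plate medians.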

[2] = tested on: NCI-H2347
Procedure, shortened: as §1

[3] = tested on: NCI-H460
Procedure, shortened: as §1

[4] = tested on: NCI-H661
Procedure, shortened: as §1

[5] = tested on: NCI-H1755
Procedure, shortened: as §1

[6] = tested on: NCI-H1563
Procedure, shortened: as §1

[7] = tested on: NCI-H2170
Procedure, shortened: as §1

[8] = tested on: NCI-H1792
Procedure, shortened: as §1

[9] = tested on: SK-MES-1
Procedure, shortened: as §1

[10] = tested on: NCI-H1355
Procedure, shortened: as §1

[11] = tested on: RERF-LC-KJ
Procedure, shortened: as §1

[12] = tested on: NCI-H322M
Procedure, shortened: as §1

[13] = tested on: NCI-H3122
Procedure, shortened: as §1

[14] = tested on: NCI-H727
Procedure, shortened: as §1

[15] = tested on: NCI-H1915
Procedure, shortened: as §1

[16] = tested on: NCI-H1651
Procedure, shortened: as §1

[17] = tested on: LXF-289
Procedure, shortened: as §1

[18] = tested on: NCI-H596
Procedure, shortened: as §1

[19] = tested on: NCI-H520
Procedure, shortened: as §1

[20] = tested on: NCI-H650
Procedure, shortened: as §1

[21] = tested on: PC-14
Procedure, shortened: as §1

[22] = tested on: NCI-H441
Procedure, shortened: as §1

[23] = tested on: SW 900
Procedure, shortened: as §1

## NC(=O)Nc1cc(-c2cccc(F)c2)sc1C(=O)N[C@H]1CCCNC1 [AZD7762] + CCNC(=O)c1noc(-c2cc(C(C)C)c(O)cc2O)c1-c1ccc(CN2CCOCC2)cc1 [Luminespib] (partner 0.01 µM)
[1]; first compound 0.01 µM
  relative viability: 1.06
[1]; first compound 0.03162 µM
  relative viability: 0.932
[1]; first compound 0.1 µM
  relative viability: 1.01
[1]; first compound 0.3162 µM
  relative viability: 0.943
[1]; first compound 1 µM
  relative viability: 0.953
[2]; first compound 0.01 µM
  relative viability: 0.417
[2]; first compound 0.03162 µM
  relative viability: 0.573
[2]; first compound 0.1 µM
  relative viability: 0.715
[2]; first compound 0.3162 µM
  relative viability: 0.396
[2]; first compound 1 µM
  relative viability: 0.63
[3]; first compound 0.01 µM
  relative viability: 0.0439
[3]; first compound 0.03162 µM
  relative viability: 0.0339
[3]; first compound 0.1 µM
  relative viability: 0.036
[3]; first compound 0.3162 µM
  relative viability: 0.026
[3]; first compound 1 µM
  relative viability: 0.0276
[4]; first compound 0.01 µM
  relative viability: 1.01
[4]; first compound 0.03162 µM
  relative viability: 1
[4]; first compound 0.1 µM
  relative viability: 1.02
[4]; first compound 0.3162 µM
  relative viability: 0.971
[4]; first compound 1 µM
  relative viability: 0.417
[5]; first compound 0.01 µM
  relative viability: 0.498
[5]; first compound 0.03162 µM
  relative viability: 0.344
[5]; first compound 0.1 µM
  relative viability: 0.244
[5]; first compound 0.3162 µM
  relative viability: 0.225
[5]; first compound 1 µM
  relative viability: 0.275
[6]; first compound 0.01 µM
  relative viability: 0.524
[6]; first compound 0.03162 µM
  relative viability: 0.507
[6]; first compound 0.1 µM
  relative viability: 0.523
[6]; first compound 0.3162 µM
  relative viability: 0.505
[6]; first compound 1 µM
  relative viability: 0.475
[7]; first compound 0.01 µM
  relative viability: 0.644
[7]; first compound 0.03162 µM
  relative viability: 0.666
[7]; first compound 0.1 µM
  relative viability: 0.71
[7]; first compound 0.3162 µM
  relative viability: 0.833
[7]; first compound 1 µM
  relative viability: 0.724
[8]; first compound 0.01 µM
  relative viability: 0.586
[8]; first compound 0.03162 µM
  relative viability: 0.472
[8]; first compound 0.1 µM
  relative viability: 0.392
[8]; first compound 0.3162 µM
  relative viability: 0.484
[8]; first compound 1 µM
  relative viability: 0.481
[9]; first compound 0.01 µM
  relative viability: 1.08
[9]; first compound 0.03162 µM
  relative viability: 0.715
[9]; first compound 0.1 µM
  relative viability: 0.38
[9]; first compound 0.3162 µM
  relative viability: 0.19
[9]; first compound 1 µM
  relative viability: 0.175
[10]; first compound 0.01 µM
  relative viability: 0.709
[10]; first compound 0.03162 µM
  relative viability: 0.751
[10]; first compound 0.1 µM
  relative viability: 0.812
[10]; first compound 0.3162 µM
  relative viability: 0.717
[10]; first compound 1 µM
  relative viability: 0.581
[11]; first compound 0.01 µM
  relative viability: 1.41
[11]; first compound 0.03162 µM
  relative viability: 1.38
[11]; first compound 0.1 µM
  relative viability: 1.21
[11]; first compound 0.3162 µM
  relative viability: 1.2
[11]; first compound 1 µM
  relative viability: 1.02
[12]; first compound 0.01 µM
  relative viability: 0.851
[12]; first compound 0.03162 µM
  relative viability: 0.827
[12]; first compound 0.1 µM
  relative viability: 0.357
[12]; first compound 0.3162 µM
  relative viability: 0.248
[12]; first compound 1 µM
  relative viability: 0.245
[13]; first compound 0.01 µM
  relative viability: 0.0859
[13]; first compound 0.03162 µM
  relative viability: 0.0843
[13]; first compound 0.1 µM
  relative viability: 0.109
[13]; first compound 0.3162 µM
  relative viability: 0.0927
[13]; first compound 1 µM
  relative viability: 0.0813
[14]; first compound 0.01 µM
  relative viability: 0.24
[14]; first compound 0.03162 µM
  relative viability: 0.499
[14]; first compound 0.1 µM
  relative viability: 0.291
[14]; first compound 0.3162 µM
  relative viability: 0.325
[14]; first compound 1 µM
  relative viability: 0.279
[15]; first compound 0.01 µM
  relative viability: 0.828
[15]; first compound 0.03162 µM
  relative viability: 0.829
[15]; first compound 0.1 µM
  relative viability: 0.743
[15]; first compound 0.3162 µM
  relative viability: 0.555
[15]; first compound 1 µM
  relative viability: 0.434
[16]; first compound 0.01 µM
  relative viability: 0.98
[16]; first compound 0.03162 µM
  relative viability: 0.872
[16]; first compound 0.1 µM
  relative viability: 0.802
[16]; first compound 0.3162 µM
  relative viability: 0.487
[16]; first compound 1 µM
  relative viability: 0.215
[17]; first compound 0.01 µM
  relative viability: 0.673
[17]; first compound 0.03162 µM
  relative viability: 0.601
[17]; first compound 0.1 µM
  relative viability: 0.753
[17]; first compound 0.3162 µM
  relative viability: 0.724
[17]; first compound 1 µM
  relative viability: 0.456
[18]; first compound 0.01 µM
  relative viability: 0.985
[18]; first compound 0.03162 µM
  relative viability: 1.02
[18]; first compound 0.1 µM
  relative viability: 0.999
[18]; first compound 0.3162 µM
  relative viability: 1.07
[18]; first compound 1 µM
  relative viability: 1.03
[19]; first compound 0.01 µM
  relative viability: 0.208
[19]; first compound 0.03162 µM
  relative viability: 0.191
[19]; first compound 0.1 µM
  relative viability: 0.238
[19]; first compound 0.3162 µM
  relative viability: 0.254
[19]; first compound 1 µM
  relative viability: 0.234
[20]; first compound 0.01 µM
  relative viability: 0.801
[20]; first compound 0.03162 µM
  relative viability: 0.728
[20]; first compound 0.1 µM
  relative viability: 0.763
[20]; first compound 0.3162 µM
  relative viability: 0.641
[20]; first compound 1 µM
  relative viability: 0.458
[21]; first compound 0.01 µM
  relative viability: 0.162
[21]; first compound 0.03162 µM
  relative viability: 0.199
[21]; first compound 0.1 µM
  relative viability: 0.16
[21]; first compound 0.3162 µM
  relative viability: 0.118
[21]; first compound 1 µM
  relative viability: 0.136
[22]; first compound 0.01 µM
  relative viability: 0.402
[22]; first compound 0.03162 µM
  relative viability: 0.489
[22]; first compound 0.1 µM
  relative viability: 0.285
[22]; first compound 0.3162 µM
  relative viability: 0.436
[22]; first compound 1 µM
  relative viability: 0.212
[23]; first compound 0.01 µM
  relative viability: 0.182
[23]; first compound 0.03162 µM
  relative viability: 0.18
[23]; first compound 0.1 µM
  relative viability: 0.201
[23]; first compound 0.3162 µM
  relative viability: 0.159
[23]; first compound 1 µM
  relative viability: 0.146
